Where two headings read alike, the source gives them in different places. Marks after values point to notes of the source that are not given here.
Assays:
[1] = Pharmacokinetics after single i.v. administration to rats (plasma, UHPLC-MS/MS); type: in vivo, Wistar rats; conditions: for Cmax / Tmax / AUC(0-inf) / clearance / half-life / AUC(0-t) / Vd: male, Wistar, rat, plasma, iv; for Cmax / Tmax / AUC(0-inf) / clearance / half-life / AUC(0-t): 2 mg/kg; for AUC(0-inf): read-out: AUC (zero to infinity); for AUC(0-t): read-out: AUC0-tlast; for Vd: read-out: Vz (apparent volume of distribution); for mean plasma concentration at 6 h relative to Cmax: i.v. 2 mg·kg^−1, 6 h, DpC Group 1
Procedure: Male Wistar rats (230-310 g; n = 22) obtained from Velaz (Czech Republic) were kept in an air-conditioned room under a 12 h light-dark cycle, constant temperature and humidity and had free access to water and a standard laboratory pellet diet for rodents. All animal handling and procedures were approved and supervised by the Animal Welfare Body of the Faculty of Medicine in Hradec Kralove, Charles University in Prague. The investigation conformed to the Guide for the Care and Use of Laboratory Animals.
The rats were anaesthetized with pentobarbital (30 mg^.kg^−1; i.p.) and then the vena jugularis and arteria carotis were prepared for drug administration and blood sample collection, respectively. Both Dp44mT and DpC were dissolved in a mixture of saline, PEG 300 and ethanol (5:4:1, v/v/v) and administered to rats at a dose of 2 mg^.kg^−1, as a slow i.v. bolus. Blood was then collected into EDTA-containing tubes, immediately centrifuged and the plasma kept at −80°C until being analyzed. The blood withdrawn from animals was compensated with an appropriate volume of saline. The animals were sacrificed by pentobarbital overdose.
Initially, for both compounds, rats (n = 2, in each group) were used for the in-vivo investigation of the thiosemicarbazone metabolites and also the preparation of the quantitative analytical method. For the full PK study, 6 rats were used for each compound (group 1) and the blood was sampled at 4, 10, 30, 60, 120, 240 and 360 min post-administration.
Due to the markedly slower elimination of DpC, an additional in-vivo study was performed to appropriately describe the elimination phase of this drug. The conscious rats (n = 8, group 2) were administered DpC (2 mg^.kg^−1) via slow i.v. bolus to the vena saphena. Blood was sampled from the retro-orbital plexus under light ether anesthesia during the following time intervals: 120, 360, 600, 1440 and 1800 min. Plasma samples were treated and analyzed using the analytical methods described below in the Section: UHPLC-MS/MS methods for quantitative assay of the drugs and their metabolites.
Standard non-compartmental analysis was performed implementing Kinetica software (version 4.0, Thermo Fisher Scientific Inc., MA, U.S.A.). […] Maximum concentration (Cmax) and the time to maximum concentration (Tmax) were determined directly from the geometric mean vs. time profiles and from individual profiles. The area under the mean plasma concentration–time curve from zero up to the last sampling interval (AUC0-tlast) was calculated by a combination of the linear and log-linear trapezoidal methods. The area under the mean plasma concentration–time curve from zero up to infinity (AUC) was determined as the sum of the AUC0–tlast and of the extrapolated part (i.e., the ratio of the concentration predicted at the time interval of tlast and the terminal rate constant, λz). The λz was estimated by linear regression of the log transformed concentrations in the terminal part of the curve.
Population pharmacokinetic modeling was performed using non-linear, mixed effect modeling as implemented in Monolix, version 4 (http://wfn.software.monolix.org). Pharmacokinetic parameters were estimated by computing the maximum likelihood estimator of the parameters without any approximation of the model (no linearization). This was performed using the Stochastic Approximation Expectation Maximization (SAEM) algorithm combined with a Markov chain Monte Carlo procedure. The between-animal variability in model parameters were ascribed to an exponential model and a proportional model was used to describe the residual variability. The goodness-of-fit was assessed by using several diagnostic plots (observed and predicted concentrations vs. time; observed concentrations vs. population predictions; weighted residuals vs. time; and weighted residuals vs. predictions). Individual parameter values were obtained as empirical Bayes estimates. […]

[2] = system: H9c2 heart-derived myoblasts; test: In-vitro metabolism of the drugs in H9c2 cells (HPLC-MS); type: in vitro ADME, rat; conditions: H9c2, 10 μmol·L^−1, 12 h, 37°C
Procedure: Breast cancer cells (MCF-7) and H9c2 heart-derived myoblasts were seeded in 100-mm Petri dishes (1,000,000 cells/dish) for 24 h/37°C. Freshly prepared stock solutions of Dp44mT and DpC in DMSO (Sigma-Aldrich, Germany) were diluted in culture medium to the required working concentration.
The cells were incubated for 12 h (37°C) with either Dp44mT or DpC at a concentration of 10 μmol·L^−1. After this incubation, the cells were harvested, washed twice with ice-cold PBS buffer, centrifuged (790 x g) and precipitated with acetonitrile (200 μL/10^6 cells) prior to the analysis. The overlaying medium was also analyzed to search for possible metabolites. […] All samples were analyzed using HPLC-MS as described below in the Section: HPLC-MS method to identify metabolites of the drugs.
To search for the metabolites, plasma was precipitated with methanol or acetonitrile (plasma/solvent ratio – 1:3, v/v), treated using solid phase extraction (SPE; Discovery DSC-PH, Supelco, PA, U.S.A.), or liquid-liquid extraction with various solvents (ethyl acetate, toluene, dichloromethane). […] These samples were then analyzed using HPLC-MS with ion trap mass analyzer implementing the settings described previously with minor modifications (for details of the analyses see Supplementary Material, part 2.1). […]

[3] = rats, i.v. 2 mg·kg^−1, individual values, mean ± S.D., DpC Group 1 only, read-out: Cmax (observed, individual)
[4] = rats, i.v. 2 mg·kg^−1, individual values, mean ± S.D., DpC Group 1 only, read-out: Tmax (observed, individual) (converted)
[5] = rats, i.v. 2 mg·kg^−1, non-compartmental analysis of geometric mean plasma curves, Dp4mT = metabolite after Dp44mT dosing, read-out: Cmax
[6] = rats, i.v. 2 mg·kg^−1, non-compartmental analysis, Dp4mT = metabolite after Dp44mT dosing, read-out: Tmax (converted)
[7] = rats, i.v. 2 mg·kg^−1, non-compartmental analysis
[8] = rats, i.v. 2 mg·kg^−1, non-compartmental analysis, read-out: CL (total plasma clearance) (converted)
[9] = rats, i.v. 2 mg·kg^−1, non-compartmental analysis, read-out: t1/2 (elimination half-life) (converted)
[10] = rats, i.v. 2 mg·kg^−1, two-compartment population model, Bayesian estimates, mean ± S.D.
[11] = rats, i.v. 2 mg·kg^−1, two-compartment population model, Bayesian estimates, mean ± S.D., read-out: CL (total clearance) (converted)
[12] = rats, i.v. 2 mg·kg^−1, two-compartment population model, Bayesian estimates, mean ± S.D., read-out: t1/2alpha (initial distribution half-life)
[13] = rats, i.v. 2 mg·kg^−1, two-compartment population model, Bayesian estimates, mean ± S.D., read-out: t1/2beta (elimination half-life) (converted)
[14] = rats, i.v., population analysis

CN(C(=S)NN=C(c1ccccn1)c1ccccn1)C1CCCCC1 [DpC, di(2-pyridyl)ketone 4-cyclohexyl-4-methyl-3-thiosemicarbazone]
Cmax [1, 3]: 5.57 ± 0.89 µM | Tmax [1, 4]: 4 min | Cmax [1, 5]: 5.51 µM | Tmax [1, 6]: 4 min | AUC(0-inf) [1, 7]: 39.8 µM·h | clearance [1, 8]: 2.37 mL/min/kg | half-life [1, 9]: 810 min | AUC(0-inf) [1, 10]: 37.2 ± 16 µM·h | clearance [1, 11]: 3.1 mL/min/kg | half-life [1, 12]: 40 ± 5 min | half-life [1, 13]: 642 ± 240 min | AUC(0-t) [1]: 32.2 µM·h | Vd [1, 7]: 2.77 L/kg | total exposure (AUC/dose), fold exceeding that of Dp44mT ([1]; rats, i.v.): > 20 fold | mean plasma concentration at 6 h relative to Cmax ([1]; rats): 21% | lamdaz (terminal rate constant of elimination) [1, 7]: 0.0515 h⁻¹ | mean extrapolated AUC [1, 7]: 19% | Q (intercompartmental clearance) [1, 10]: 0.50 ± 0.11^b L·h^−1·kg^−1 | Vc (volume of central compartment) [1, 10]: 1.05 ± 0.08 L/kg | Vp (volume of peripheral compartment) [1, 10]: 1.19 ± 0.68^a L·kg^−1 | dose-corrected individual Cmax, higher than Dp44mT by ([1]; rats, i.v., p<0.01): 80% | metabolism in heart-derived myoblasts [2]: do not undergo significant metabolism

CN(C)C(=S)NN=C(c1ccccn1)c1ccccn1 [Dp44mT, di(2-pyridyl)ketone 4,4-dimethyl-3-thiosemicarbazone]
Cmax [1, 3]: 3.78 ± 1.33 µM | Tmax [1, 4]: 5 min | Cmax [1, 5]: 2.55 µM | Tmax [1, 6]: 4 min | AUC(0-inf) [1, 7]: 1.46 µM·h | clearance [1, 8]: 79.7 mL/min/kg | half-life [1, 9]: 132 min | AUC(0-inf) [1, 10]: 1.66 ± 0.25 µM·h | clearance [1, 11]: 71.8 mL/min/kg | half-life [1, 12]: 4.3 ± 0.54 min | half-life [1, 13]: 102 ± 18 min | AUC(0-t) [1]: 1.34 µM·h | Vd [1, 7]: 15 L/kg | mean plasma concentration at 6 h relative to Cmax ([1]; rats): less than 2% | lamdaz (terminal rate constant of elimination) [1, 7]: 0.318 h⁻¹ | mean extrapolated AUC [1, 7]: 8% | total clearance ([1]; rats, i.v. 2 mg·kg^−1, range of both analyses): 4.3-4.8 L^.h^−1.kg^−1 | Q (intercompartmental clearance) [1, 10]: 5.11 ± 0.66 L/h/kg | Vc (volume of central compartment) [1, 10]: 1.02 ± 0.12 L/kg | Vp (volume of peripheral compartment) [1, 10]: 5.44 ± 1.70 L/kg | clearance, fold higher than DpC [1, 14]: 23 fold | dose-corrected total AUC, fold lower than DpC [1, 14]: 28 fold | terminal half-life of elimination (t1/2β), fold shorter than DpC [1, 14]: 6.3 fold | metabolism in heart-derived myoblasts [2]: do not undergo significant metabolism

Reference: PMC4767442 (Oncotarget, 2015)
